In general, Kd refers to a measure of binding affinity in units of concentration. The low end stands for a tighter complex, the high end for a looser complex.

Here are results for 13 molecules from PMC10328974, “Molecular mechanism of plasmid-borne resistance to sulfonamide antibiotics” (Nature Communications, 2023).

Values after ≈ are worked out from the molar mass of the structure shown.

The target of one assay is T1, EcDHPS (dihydropteroate synthase) (Escherichia coli, UniProt P0AC13).
T1 construct: gene folP
The experiment in a line: biochemical.
Details: not given
For the molecule `Cc1cc(NS(=O)(=O)c2ccc(N)cc2)no1` [SMX, sulfamethoxazole], the Ki stood at 5.15 ± 1.1 µM.

A further assay deals with T2, Sul3 (Escherichia coli, UniProt C0HMD9, F177G).
T2 sequence (C0HMD9 1-242 F177G): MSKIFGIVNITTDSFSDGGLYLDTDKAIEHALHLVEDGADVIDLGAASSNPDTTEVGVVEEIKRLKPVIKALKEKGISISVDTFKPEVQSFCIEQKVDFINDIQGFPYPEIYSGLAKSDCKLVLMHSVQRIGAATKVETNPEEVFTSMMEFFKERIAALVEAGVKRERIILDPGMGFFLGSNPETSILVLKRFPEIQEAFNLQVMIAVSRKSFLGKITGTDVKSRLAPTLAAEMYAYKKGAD
The experiment in a line: coupled malachite green DHPS activity assay, competition with pABA. It counts as biochemical. The note with it: read-out: Sulfa (SMX) / Ki.
With `Cc1cc(NS(=O)(=O)c2ccc(N)cc2)no1` [SMX, sulfamethoxazole], the Ki is 4.16 ± 0.3 µM.

A further assay deals with T3, EcDHPS (Escherichia coli, UniProt P0AC13, F190W/W92F).
T3 construct: gene folP; 1-282 amino acids
T3 sequence (P0AC13 1-282 W92F/F190W): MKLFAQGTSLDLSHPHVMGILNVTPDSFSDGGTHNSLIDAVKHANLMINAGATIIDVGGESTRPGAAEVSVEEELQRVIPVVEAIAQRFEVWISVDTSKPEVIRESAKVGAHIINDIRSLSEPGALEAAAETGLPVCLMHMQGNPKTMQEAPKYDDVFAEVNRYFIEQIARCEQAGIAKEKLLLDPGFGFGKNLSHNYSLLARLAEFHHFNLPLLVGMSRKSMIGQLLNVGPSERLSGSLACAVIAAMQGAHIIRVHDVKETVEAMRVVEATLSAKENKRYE
In words: intrinsic tryptophan fluorescence titration. It counts as binding.
Details: not given
The molecule `Nc1nc(O)c2c(n1)NCC(COP(=O)(O)OP(=O)(O)O)=N2` [DHPP, 6-hydroxymethyl-7,8-dihydropterin pyrophosphate] registered an equilibrium dissociation constant (Kd) of 8 µM.

For a further assay, the system named is T4, WT E. coli BW25113.
T4 construct: BW25113
The experiment in a line: microbe, parasite or virus in culture. Details: agar dilution MIC on MHII agar, lowest concentration inhibiting bacterial growth. The note with it: Escherichia coli, BW25113, 18 h, read-out: MIC (ug/mL). As to the method: The susceptibilities of various E. coli strains to sulfonamide antibiotics were assessed using the agar dilution method[85] with the exception that MHII agar (Sigma) plates were used, as this agar is specifically formulated to have low levels of thymine and thymidine content, both of which are known to antagonize the action of sulfonamides. Antibiotics used were: sulfamethoxazole (SMX) (Sigma-Aldrich), 50 mg/mL in DMSO; sulfadiazine (SDZ) (Sigma-Aldrich), 100 mg/mL in 1 M NaOH; sulfanilamide (SAA) (Sigma-Aldrich), 50 mg/mL in acetone; sulfisoxazole (SOZ) (TCI America) 50 mg/mL on acetone; sulfathiazole (STZ) (Sigma-Aldrich) 50 mg/mL in acetone: sulfapyridine (SPY) (Sigma-Aldrich) 40 mg/mL in 0.5 M NaOH; sulfamerazine (SMRZ) (AK Scientific), 50 mg/mL in DMSO; sulfamethazine (SMZ) (Alfa Aesar), 50 mg/mL in DMSO; sulfameter (SMT) (Sigma-Aldrich) 100 mg/mL in DMSO; sulfacetamide (SAD) (Sigma-Aldrich) 100 mg/mL in DMSO; sulfaquinoxaline (SQX) (Sigma-Aldrich), 50 mg/mL in DMSO; sulfadimethoxine (SDT) (Sigma-Aldrich), 100 mg/m: in 1 N NaOH. Freshly streaked E. coli colonies were resuspended in sterile 0.9% NaCl solution and the turbidity of the suspension adjusted to that of a McFarland Standard of 0.5 using a Sensititre Nephelometer (Thermo Fisher Scientific) calibrated to a McFarland 0.5 BaSO4 standard. The bacterial suspension was diluted 1:10 into a well of a sterile 96-well microtitre plate by pipetting 10 μL into a well containing 90 μL of sterile saline. A 48-pin replicator with 1.5 mm pins was used to deliver the final inoculum of 1 μL (~10^4 […]) onto MHII agar plates containing various concentrations of either SMX, SDZ, SAA, SOZ STZ, SPY, SMRZ, SMZ, SMT, SAD, SQX, or SDT. […] Inoculated sulfa-agar plates were incubated 37 °C for 18 h and the minimum inhibitory concentration (MIC) was determined to be the lowest concentration of drug that inhibited bacterial growth. In all instances, a drug-free control plate was included to ensure bacterial growth. The ∆folP deletion strain, which is auxotrophic for thymidine
As for `Nc1ccc(S(N)(=O)=O)cc1` [SAA, sulfanilamide], the MIC came out at 2050 µg/mL (≈ 11900 µM).
Consider `CC(=O)NS(=O)(=O)c1ccc(N)cc1` [SAD, sulfacetamide], for which the MIC came to 512 µg/mL (≈ 2390 µM).
For `COc1cc(NS(=O)(=O)c2ccc(N)cc2)nc(OC)n1` [SDT, sulfadimethoxine], the MIC was found to be 256 µg/mL (≈ 825 µM).
On the same count and under the same terms, the result for `Nc1ccc(S(=O)(=O)Nc2ncccn2)cc1` [SDZ, sulfadiazine] reads 32 µg/mL (≈ 128 µM); that for `Cc1ccnc(NS(=O)(=O)c2ccc(N)cc2)n1` [SMRZ, sulfamerazine], 32 µg/mL (≈ 121 µM); that for `COc1cnc(NS(=O)(=O)c2ccc(N)cc2)nc1` [SMT, sulfameter], 128 µg/mL (≈ 457 µM).
With `Cc1cc(NS(=O)(=O)c2ccc(N)cc2)no1` [SMX, sulfamethoxazole], the MIC is 16 µg/mL (≈ 63.2 µM).
In the case of `Cc1cc(C)nc(NS(=O)(=O)c2ccc(N)cc2)n1` [SMZ, sulfamethazine], the MIC was 256 µg/mL (≈ 920 µM).
Take `Cc1noc(NS(=O)(=O)c2ccc(N)cc2)c1C` [SOZ, sulfisoxazole]: the MIC was found to be 32 µg/mL (≈ 120 µM).
For the molecule `Nc1ccc(S(=O)(=O)Nc2ccccn2)cc1` [SPY, sulfapyridine], the MIC came to 64 µg/mL (≈ 257 µM).
As to `Nc1ccc(S(=O)(=O)Nc2cnc3ccccc3n2)cc1` [SQX, sulfaquinoxaline], the MIC worked out at 512 µg/mL (≈ 1700 µM).
Still for that read-out and setting: the result for `Nc1ccc(S(=O)(=O)Nc2nccs2)cc1` [STZ, sulfathiazole] reads 16 µg/mL (≈ 62.7 µM).
